Assay results as given in patent US9512474B2, “Molecular targets and methods for formulation screening and preservative efficacy testing” (LONZA WALKERSVILLE INC., priority 2011, dated 2016).
Where “and” joins values, the source holds several entries; their conditions need not be identical. Identical values can stand only once.

Columns and labels:
Type in all cases: cell-based
[1] = system: Escherichia coli; assay: pre-rRNA RT-PCR viability assay (preservative efficacy testing)
Source text: (§1) The specific systems for E. coli, B. subtilis and S. marcescens are designed on the 3′ end of the 16S rRNA transcript. The three systems are species-specific. In these examples, the reverse primer hybridizes on the pre-rRNA region and the forward primer and probe in the mature rRNA region. The amplification will therefore be effective only if pre-rRNAs are present in the cells. FIG. 2 illustrates E. coli, B. subtilis and S. marcescens pre-rRNA-specific systems designed in the 3′ end of the 16S pre-rRNA for use with RT-PCR (forward primer, reverse primer, and forward probe).
(§2) Assays such as those disclosed herein, and assays developed under the guidelines of the provided examples, can be used in Formulation Screening and/or Preservative Efficacy Testing. An exemplary protocol is as follows: non-treated (or viable) and preservative-treated cells are analyzed in parallel with the same procedure and the same reagents: • Cells are calibrated to an expected density (CFU/ml) and collected by centrifugation on a filter membrane. • Two milliliters of RNA Booster (nutrients) are applied to the membrane of the filtration unit and these are incubated two hours for bacteria and four hours for fungi at 35° C.±2° C. (or appropriate temperature). • After incubation, the filtration units are centrifuged to remove the RNA Booster and 1.5 milliliters of lysis buffer are added to each membrane. • Cell lysates are recovered manually by pipetting and transferred into a lysis tube for a mechanical lysis process. • Lysate is then transferred in a sample prep tube. • RNA is extracted and purified using a known nucleic acid isolation method (i.e., RNA magnetic beads, silica resin). • DNA is removed by DNAse treatment to ensure predominantly an RNA target. • Eluted RNA is amplified by RT-PCR. The master mix used for the RT-PCR contains all reagents needed for the RT-PCR including specific primers and probe targeting the pre-rRNA or EF-3 mRNA sequences.
(§3) The referenced guidelines followed for this assay are the European Pharmacopoeia (EP)—Chapter 5.1.3 <<Efficacy of Antimicrobial Preservation>> and the United States Pharmacopeia (USP)—Chapter 51 <<Antimicrobial Effectiveness Testing>>. The value obtained by RT-PCR for the non-treated cells is compared to the value obtained for the treated cells. As used herein Ct stands for threshold cycle; i.e., the intersection between an amplification curve and a threshold line. According to the EP requirements, in a positive result as disclosed herein the difference of the Ct values is at least 3 logs, which corresponds to a ΔCt≧10 for bacteria and at least 2 logs, which corresponds to a ΔCt≧6.6 for fungi, after one day (24 hours) and seven days, respectively, for bacteria and fungi, of preservative treatment. USP requires data analysis after seven days and fourteen days for bacteria and fungi, respectively.
(§4) Preservative treatments were evaluated at high cells concentrations (10^6 and 10^5 cells per assay) that are commonly used for formulation screening. Five replicates at each cell concentration were analyzed. The Ct value corresponds to the RT-PCR cycle for which the level of fluorescence is outside the fluorescence background. The method compares Ct values for non-treated and treated cells and is expressed as the ΔCt.
(§5) The tables set forth below summarize the Ct values obtained for six bacteria and two fungi using six treatments: Heat, Isopropanol, Preservatives BAC, Poly-Q and IPBC and a commercial contact lens solution. Ct values obtained for non-treated cells (viable) are compared to Ct values obtained for treated cells. The ΔCt calculated is reported and must be ≧10 to meet the specification of 3 logs reduction for bacteria and must be ≧6.6 to meet the specification of 2 logs reduction for fungi. All assays are performed on the BD Max6 instrument from Becton Dickinson. Data are obtained by multiple operators on different days.

[2] = system: Serratia marcescens; assay: as above
Source text: as §1, §2, §3, §4, §5

[3] = system: Pseudomonas aeruginosa; assay: as above
Source text: (§6) The specific systems for S. aureus, P. aeruginosa and S. epidermidis are designed on the 5′ end of the 23S rRNA. The three systems are species-specific. The forward primer hybridizes in the pre-rRNA region and the reverse primer and the forward probe in the mature rRNA region. The amplification is thus effective only if pre-rRNAs are present in the cells. FIG. 3 illustrates S. aureus, P. aeruginosa and S. epidermidis pre-rRNA-specific systems designed in the 5′ end of the 23S pre-rRNA for use with RT-PCR (forward primer, reverse primer, and forward probe).
as §2, §3, §4, §5

[4] = system: Staphylococcus aureus; assay: as above
Source text: as §6, §2, §3, §4, §5

[5] = system: Escherichia coli; assay: Control plate of treated cells (colonies); details: 10^6 cells
[6] = system: Pseudomonas aeruginosa; assay: Control plate of treated cells (colonies); details: 10^6 cells
[7] = system: Staphylococcus aureus; assay: Control plate of treated cells (colonies); details: 10^6 cells
[8] = system: Serratia marcescens; assay: Control plate of treated cells (colonies); details: 10^6 cells
[9] = system: Aspergillus brasiliensis; assay: pre-rRNA RT-PCR viability assay (preservative efficacy testing); details: 10^6 cells
Source text: The specific system for A. brasiliensis is designed on the 5′ end of the 5.8S rRNA. This system is species-specific. The forward primer hybridizes in the pre-rRNA region and the reverse primer and the forward probe in the mature rRNA region. The amplification is thus effective only if pre-rRNAs are present in the cells. FIG. 4 illustrates A. brasiliensis pre-rRNA-specific systems designed in the 5′ end of the 5.8S pre-rRNA for use with RT-PCR (forward primer, reverse primer, and forward probe).
as §2, §3, §4, §5

[10] = system: Candida albicans; assay: EF-3 mRNA RT-PCR viability assay (preservative efficacy testing); details: 10^5 cells
Source text: The specific system for C. albicans is designed on the mRNA of the EF-3 gene. This system is species-specific. The forward primer, the forward probe and the reverse primer hybridize in the internal sequence of the mRNA of the EF-3 gene. The amplification is thus effective only if the EF-3 mRNAs are present in the cells. FIG. 5 illustrates C. albicans EF-3 mRNA specific system designed in the internal sequence of the EF-3 mRNA for use with RT-PCR (forward primer, reverse primer, and forward probe).
as §2, §3, §4, §5

[11] = system: Aspergillus brasiliensis; assay: Control plate of treated cells (colonies); details: from day 1 to day 7 at room temperature (day not specified); 10^6 cells
[12] = system: Candida albicans; assay: Control plate of treated cells (colonies); details: from day 1 to day 14 at room temperature (day not specified); 10^5 cells
[13] = 1 H at room temperature, 10^5 cells
[14] = 1 H at room temperature, 10^6 cells
[15] = 24 H at room temperature, 10^5 cells
[16] = 24 H at room temperature, 10^6 cells

Molecule: CC(C)O [Isopropanol]
- Ct Treated [1, 13]: 33.02 and 33.36 and 32.52 and 31.38 and 31.93
- Mean Ct (Treated) [1, 13]: 32.44
- Δ Ct Viable − Dead [1, 13]: 17.56
- Ct Treated [1, 14]: 32.91 and 32.51 and 32.31 and 32.98 and 33.93
- Mean Ct (Treated) [1, 14]: 32.93
- Δ Ct Viable − Dead [1, 14]: 21.00
- Ct Treated [2, 13]: 29.10 and 30.70 and 31.00 and 29.90 and 30.30
- Mean Ct (Treated) [2, 13]: 30.20
- Δ Ct Viable − Dead [2, 13]: 13.20
- Ct Treated [2, 14]: 26.90 and 26.20 and 25.90 and 25.40 and 25.50
- Mean Ct (Treated) [2, 14]: 25.98
- Δ Ct Viable − Dead [2, 14]: 13.18
- Ct Treated [3, 13]: 34.62 and 34.83 and 34.29 and 33.99 and 38.81
- Mean Ct (Treated) [3, 13]: 35.31
- Δ Ct Viable − Dead [3, 13]: 10.99
- Ct Treated [3, 14]: 34.59 and 33.28 and 33.21 and 34.18 and 33.26
- Mean Ct (Treated) [3, 14]: 33.70
- Δ Ct Viable − Dead [3, 14]: 13.45
- Ct Treated [4, 13]: 29.99 and 29.43 and 29.12 and 29.97 and 29.89
- Mean Ct (Treated) [4, 13]: 29.68
- Δ Ct Viable − Dead [4, 13]: 12.80
- Ct Treated [4, 14]: 26.32 and 26.40 and 25.27 and 24.94 and 26.57
- Mean Ct (Treated) [4, 14]: 25.90
- Δ Ct Viable − Dead [4, 14]: 13.09
- Colonies on control plate of treated cells ([5]; 1 H at room temperature): NC = Negative Control - Control plate of treated cells (10^6 cells) shows no colony on plate.
- Colonies on control plate of treated cells ([6]; 1 H at room temperature): NC = Negative Control - Control plate of treated cells (10^6 cells) shows no colony on plate.
- Colonies on control plate of treated cells ([7]; 1 H at room temperature): NC = Negative Control - Control plate of treated cells (10^6 cells) shows no colony on plate.
- Colonies on control plate of treated cells ([8]; 1 H at room temperature): NC = Negative Control - Control plate of treated cells (10^6 cells) shows no colony on plate.

Molecule: Benzalkonium Chloride [BAC]
- Ct Treated [1, 15]: 32.65 and 31.54 and 31.77 and 32.76 and 32.45
- Mean Ct (Treated) [1, 15]: 32.23
- Δ Ct Viable − Dead [1, 15]: 18.57
- Ct Treated [1, 16]: 32.61 and 34.26 and 33.74 and 30.48 and 33.39
- Mean Ct (Treated) [1, 16]: 32.90
- Δ Ct Viable − Dead [1, 16]: 21.33
- Mean Ct (Treated) [2, 15]: 36.13
- Δ Ct Viable − Dead [2, 15]: 20.09
- Ct Treated [2, 16]: 34.20 and 34.30 and 32.80 and 35.50
- Mean Ct (Treated) [2, 16]: 34.20
- Δ Ct Viable − Dead [2, 16]: 22.28
- Mean Ct (Treated) [3, 15]: 31.92
- Δ Ct Viable − Dead [3, 15]: 12.39
- Mean Ct (Treated) [3, 16]: 30.72
- Δ Ct Viable − Dead [3, 16]: 14.53
- Ct Treated [4, 15]: 29.75 and 30.23 and 29.39 and 29.28 and 30.03
- Mean Ct (Treated) [4, 15]: 29.73
- Δ Ct Viable − Dead [4, 15]: 12.29
- Ct Treated [4, 16]: 26.23 and 27.50 and 26.54 and 26.71 and 26.64
- Mean Ct (Treated) [4, 16]: 26.72
- Δ Ct Viable − Dead [4, 16]: 12.65
- Ct Treated ([9]; Day 1 at room temperature): 21.80 and 21.60 and 22.10
- Mean Ct (Treated) ([9]; Day 1 at room temperature): 21.83
- Δ Ct Viable − Dead ([9]; Day 1 at room temperature): 11.63
- Ct Treated ([9]; Day 2 at room temperature): 22.40 and 21.90 and 23.90
- Mean Ct (Treated) ([9]; Day 2 at room temperature): 22.73
- Δ Ct Viable − Dead ([9]; Day 2 at room temperature): 12.53
- Ct Treated ([9]; Day 7 at room temperature): 22.60 and 24.70 and 22.50
- Mean Ct (Treated) ([9]; Day 7 at room temperature): 23.27
- Δ Ct Viable − Dead ([9]; Day 7 at room temperature): 13.07
- Ct Treated ([10]; Day 1 at room temperature): 33.70 and 32.70 and 31.60 and 29.30
- Mean Ct (Treated) ([10]; Day 1 at room temperature): 32.00
- Δ Ct Viable − Dead ([10]; Day 1 at room temperature): 13.90
- Mean Ct (Treated) ([10]; Day 7 at room temperature): 33.67
- Δ Ct Viable − Dead ([10]; Day 7 at room temperature): 15.57
- Mean Ct (Treated) ([10]; Day 14 at room temperature): 32.23
- Δ Ct Viable − Dead ([10]; Day 14 at room temperature): 14.13
- Colonies on control plate of treated cells ([5]; 24 H at room temperature): NC = Negative Control - Control plate of treated cells (10^6 cells) shows no colony on plate.
- Colonies on control plate of treated cells ([6]; 24 H at room temperature): NC = Negative Control - Control plate of treated cells (10^6 cells) shows no colony on plate.
- Colonies on control plate of treated cells ([7]; 24 H at room temperature): NC = Negative Control - Control plate of treated cells (10^6 cells) shows no colony on plate.
- Colonies on control plate of treated cells ([8]; 24 H at room temperature): NC = Negative Control - Control plate of treated cells (10^6 cells) shows no colony on plate.
- Colonies on control plate of treated cells [11]: NC = Negative Control - Control plate of treated cells (10^6 cells) shows no colony on plate.
- Colonies on control plate of treated cells [12]: NC = Negative Control - Control plate of treated cells (10^5 cells) shows no colony on plate.
